Measured values as given in patent publication US20260132132A1, “3A,4,5,6-TETRAHYDRO-1 H-PYRAZOLO[3,4-C]PYRIDIN-7(7AH)-ONE DERIVATIVES AS FACTOR XIIA INHIBITORS” (KALVISTA PHARMACEUTICALS LIMITED, priority 2022, published 2026).

Columns and labels:
[1] = molecular target: T1, Human Factor XIIa (hFXIIa) (Homo sapiens, UniProt P00748); experiment: Determination of Human Factor XIIa (hFXIIa) inhibition, fluorogenic substrate IC50 assay; type: biochemical; details: fluorogenic substrate H-DPro-Phe-Arg-AFC at Km, 25° C., read-out: Human FXIIa IC50
T1 construct: purchased Enzyme Research Laboratories
T1 sequence (P00748 373-615 limits assumed): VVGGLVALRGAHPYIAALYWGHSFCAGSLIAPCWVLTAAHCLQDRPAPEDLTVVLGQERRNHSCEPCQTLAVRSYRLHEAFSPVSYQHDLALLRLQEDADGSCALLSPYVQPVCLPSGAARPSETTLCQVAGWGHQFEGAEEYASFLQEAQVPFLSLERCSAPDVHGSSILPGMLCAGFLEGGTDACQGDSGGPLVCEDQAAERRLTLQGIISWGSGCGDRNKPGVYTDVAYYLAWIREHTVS
T1 sequence (P00748 20-372 partner limits assumed): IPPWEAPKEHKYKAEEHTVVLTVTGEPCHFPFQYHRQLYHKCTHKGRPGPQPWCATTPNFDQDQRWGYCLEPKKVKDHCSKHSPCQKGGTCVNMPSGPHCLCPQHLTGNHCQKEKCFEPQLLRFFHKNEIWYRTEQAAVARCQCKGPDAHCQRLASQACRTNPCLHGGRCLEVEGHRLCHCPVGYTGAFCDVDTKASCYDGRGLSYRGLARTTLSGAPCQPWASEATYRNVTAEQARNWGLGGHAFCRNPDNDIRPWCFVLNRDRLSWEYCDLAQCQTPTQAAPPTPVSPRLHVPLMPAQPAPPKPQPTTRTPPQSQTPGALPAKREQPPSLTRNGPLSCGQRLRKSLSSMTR
Experimental: Determination of Human Factor XIIa (hFXIIa) inhibition
The Km for the cleavage of the substrate by hFXIIa was determined by standard transformation of the Michaelis-Menten equation, with subsequent inhibition assays performed at substrate Km concentration.

FXa = FXa (Homo sapiens, UniProt P00742); experiment: Related protease inhibition: FXa, fluorogenic substrate; type: biochemical; details: fluorogenic substrate at Km, 25° C.; H1-H3 = % activity at 40 μM
Experimental: Human serine protease enzyme Plasma Kallikrein, KLK1, FXa, Plasmin, Thrombin and Trypsin were assayed for enzymatic activity using an appropriate fluorogenic substrate at Km concentration, FXIa at fixed substrate concentration of 100 μM and various concentrations of the test compound.

Sequence of FXa (P00742 235-488 limits assumed): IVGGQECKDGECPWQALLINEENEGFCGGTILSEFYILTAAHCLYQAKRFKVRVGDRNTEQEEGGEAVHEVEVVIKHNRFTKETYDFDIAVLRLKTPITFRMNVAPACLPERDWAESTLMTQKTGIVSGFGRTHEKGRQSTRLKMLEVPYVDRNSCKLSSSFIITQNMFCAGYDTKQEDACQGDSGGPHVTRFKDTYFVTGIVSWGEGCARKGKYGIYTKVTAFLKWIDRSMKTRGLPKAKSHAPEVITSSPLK
Sequence of FXa (P00742 41-179 partner limits assumed): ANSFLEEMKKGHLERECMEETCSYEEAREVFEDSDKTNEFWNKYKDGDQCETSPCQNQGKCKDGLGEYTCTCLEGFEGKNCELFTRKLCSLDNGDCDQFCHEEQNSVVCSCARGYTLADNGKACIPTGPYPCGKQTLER

SMILES	IC50 [1]	IC50 (FXa)
Cc1noc(C)c1CNC(=O)c1nn(-c2cccc(Cl)c2)c2c1CCN(c1ccc3c(c1)C(=O)N(C)CC3)C2=O [Example 1185, 1-(3-chlorophenyl)-N-((3,5-dimethylisoxazol-4-yl)methyl)-6-(2-methyl-1-oxo-1,2,3,4-tetrahydroisoquinolin-7-yl)-7-oxo-4,5,6,7-tetrahydro-1H-pyrazolo[3,4-c]pyridine-3-carboxamide]	300 to 1000 nM	> 40 µM
COc1cc(CNC(=O)c2nn(-c3cccc(Cl)c3)c3c2CCN(c2ccc4c(c2)C(=O)N(C)CC4)C3=O)nn1C [Example 1186, 1-(3-chlorophenyl)-N-((5-methoxy-1-methyl-1H-pyrazol-3-yl)methyl)-6-(2-methyl-1-oxo-1,2,3,4-tetrahydroisoquinolin-7-yl)-7-oxo-4,5,6,7-tetrahydro-1H-pyrazolo[3,4-c]pyridine-3-carboxamide]	100 to 300 nM	10 to 40 µM
CN1CCc2ccc(N3CCc4c(C(=O)NC(CO)c5cccnc5)nn(-c5cccc(Cl)c5)c4C3=O)cc2C1=O (stereo not shown) [Example 1187, 1-(3-chlorophenyl)-N-(2-hydroxy-1-(pyridin-3-yl)ethyl)-6-(2-methyl-1-oxo-1,2,3,4-tetrahydroisoquinolin-7-yl)-7-oxo-4,5,6,7-tetrahydro-1H-pyrazolo[3,4-c]pyridine-3-carboxamide]	300 to 1000 nM	> 40 µM
CC(=O)N1CCc2ccc(N3CCc4c(C(=O)NCc5cnccc5C)nn(-c5cccc(Cl)c5)c4C3=O)cc21 [Example 1188, 6-(1-acetylindolin-6-yl)-1-(3-chlorophenyl)-N-((4-methylpyridin-3-yl)methyl)-7-oxo-4,5,6,7-tetrahydro-1H-pyrazolo[3,4-c]pyridine-3-carboxamide]	100 to 300 nM	> 40 µM
Cc1cc(C)c(CNC(=O)c2nn(-c3cccc(Cl)c3)c3c2CCN(c2ccc4c(c2)C(=O)N(C)CC4)C3=O)cn1 [Example 1189, 1-(3-chlorophenyl)-N-((4,6-dimethylpyridin-3-yl)methyl)-6-(2-methyl-1-oxo-1,2,3,4-tetrahydroisoquinolin-7-yl)-7-oxo-4,5,6,7-tetrahydro-1H-pyrazolo[3,4-c]pyridine-3-carboxamide]	10 to 100 nM	> 40 µM
Cc1ncc(CNC(=O)c2nn(-c3cccc(Cl)c3)c3c2CCN(c2ccc4c(c2)C(=O)N(C)CC4)C3=O)s1 [Example 1193, 1-(3-chlorophenyl)-6-(2-methyl-1-oxo-1,2,3,4-tetrahydroisoquinolin-7-yl)-N-((2-methylthiazol-5-yl)methyl)-7-oxo-4,5,6,7-tetrahydro-1H-pyrazolo[3,4-c]pyridine-3-carboxamide]	100 to 300 nM	> 40 µM
Cc1ncc(CNC(=O)c2nn(-c3cccc(Cl)c3)c3c2CCN(c2ccc4c(c2)C(=O)N(C)CC4)C3=O)o1 [Example 1194, 1-(3-chlorophenyl)-6-(2-methyl-1-oxo-1,2,3,4-tetrahydroisoquinolin-7-yl)-N-((2-methyloxazol-5-yl)methyl)-7-oxo-4,5,6,7-tetrahydro-1H-pyrazolo[3,4-c]pyridine-3-carboxamide]	300 to 1000 nM	> 40 µM
CN(C)C(=O)c1cccc(N2CCc3c(C(=O)NCC4CC4)nn(-c4cccc(Cl)c4)c3C2=O)c1 [Example 1195, 1-(3-Chlorophenyl)-N-(cyclopropylmethyl)-6-[3-(dimethylcarbamoyl)phenyl]-7-oxo-4,5-dihydropyrazolo[3,4-c]pyridine-3-carboxamide]	3000 to 10000 nM	> 40 µM
CN1CCc2ccc(N3CCc4c(C(=O)NC5CCOC5(C)C)nn(-c5cccc(Cl)c5)c4C3=O)cc2C1=O (stereo not shown) [Example 1197, 1-(3-chlorophenyl)-N-(2,2-dimethyltetrahydrofuran-3-yl)-6-(2-methyl-1-oxo-1,2,3,4-tetrahydroisoquinolin-7-yl)-7-oxo-4,5,6,7-tetrahydro-1H-pyrazolo[3,4-c]pyridine-3-carboxamide]	300 to 1000 nM	> 40 µM
CN1CCc2ccc(N3CCc4c(C(=O)NCC5CCOC5)nn(-c5cccc(Cl)c5)c4C3=O)cc2C1=O (stereo not shown) [Example 1198, 1-(3-chlorophenyl)-6-(2-methyl-1-oxo-1,2,3,4-tetrahydroisoquinolin-7-yl)-7-oxo-N-((tetrahydrofuran-3-yl)methyl)-4,5,6,7-tetrahydro-1H-pyrazolo[3,4-c]pyridine-3-carboxamide]	300 to 1000 nM	> 40 µM
Cc1cc(CNC(=O)c2nn(-c3cccc(Cl)c3)c3c2CCN(c2ccc4c(c2)C(=O)N(C)CC4)C3=O)nn1C [Example 1199, 1-(3-chlorophenyl)-N-((1,5-dimethyl-1H-pyrazol-3-yl)methyl)-6-(2-methyl-1-oxo-1,2,3,4-tetrahydroisoquinolin-7-yl)-7-oxo-4,5,6,7-tetrahydro-1H-pyrazolo[3,4-c]pyridine-3-carboxamide]	100 to 300 nM	10 to 40 µM

Results, then the compound that gave them:

IC50 [1]	IC50 (FXa)	SMILES
100 to 300 nM	10 to 40 µM	Cc1cc(CNC(=O)c2nn(-c3cccc(Cl)c3)c3c2CCN(c2ccc4c(c2)C(=O)N(C)CC4)C3=O)n[nH]1 [Example 1200, 1-(3-chlorophenyl)-6-(2-methyl-1-oxo-1,2,3,4-tetrahydroisoquinolin-7-yl)-N-((5-methyl-1H-pyrazol-3-yl)methyl)-7-oxo-4,5,6,7-tetrahydro-1H-pyrazolo[3,4-c]pyridine-3-carboxamide]
100 to 300 nM	10 to 40 µM	Cc1cncc(CNC(=O)c2nn(-c3cccc(Cl)c3)c3c2CCN(c2ccc4c(c2)C(=O)N(C)CC4)C3=O)c1 [Example 1201, 1-(3-chlorophenyl)-6-(2-methyl-1-oxo-1,2,3,4-tetrahydroisoquinolin-7-yl)-N-((5-methylpyridin-3-yl)methyl)-7-oxo-4,5,6,7-tetrahydro-1H-pyrazolo[3,4-c]pyridine-3-carboxamide]
300 to 1000 nM	> 40 µM	CN1CCc2ccc(N3CCc4c(C(=O)NCc5cccnn5)nn(-c5cccc(Cl)c5)c4C3=O)cc2C1=O [Example 1202, 1-(3-chlorophenyl)-6-(2-methyl-1-oxo-1,2,3,4-tetrahydroisoquinolin-7-yl)-7-oxo-N-(pyridazin-3-ylmethyl)-4,5,6,7-tetrahydro-1H-pyrazolo[3,4-c]pyridine-3-carboxamide]
100 to 300 nM	> 40 µM	CN1CCc2ccc(N3CCc4c(C(=O)NC5CCOCC5)nn(-c5cccc(Cl)c5)c4C3=O)cc2C1=O [Example 1203, 1-(3-chlorophenyl)-6-(2-methyl-1-oxo-1,2,3,4-tetrahydroisoquinolin-7-yl)-7-oxo-N-(tetrahydro-2H-pyran-4-yl)-4,5,6,7-tetrahydro-1H-pyrazolo[3,4-c]pyridine-3-carboxamide]
100 to 300 nM	> 40 µM	O=C(NCc1cccnn1)c1nn(-c2cccc(Cl)c2)c2c1CCN(c1ccc3c(c1)CN(CCO)CC3)C2=O [Example 1204, 1-(3-chlorophenyl)-6-(2-(2-hydroxyethyl)-1,2,3,4-tetrahydroisoquinolin-7-yl)-7-oxo-N-(pyridazin-3-ylmethyl)-4,5,6,7-tetrahydro-1H-pyrazolo[3,4-c]pyridine-3-carboxamide]
10000 to 40000 nM	> 40 µM	Cc1cc(CNC(=O)c2nn(-c3cccc(Cl)c3)c3c2CCN(c2ccc4c(c2)CCN(C)C4=O)C3=O)nn1C [Example 1205, 1-(3-chlorophenyl)-N-((1,5-dimethyl-1H-pyrazol-3-yl)methyl)-6-(2-methyl-1-oxo-1,2,3,4-tetrahydroisoquinolin-6-yl)-7-oxo-4,5,6,7-tetrahydro-1H-pyrazolo[3,4-c]pyridine-3-carboxamide]
1000 to 3000 nM	> 40 µM	Cc1cc(CNC(=O)c2nn(-c3cccc(Cl)c3)c3c2CCN(c2ccc4c(c2)C(=O)N(C)C4)C3=O)nn1C [Example 1206, 1-(3-chlorophenyl)-N-((1,5-dimethyl-1H-pyrazol-3-yl)methyl)-6-(2-methyl-3-oxoisoindolin-5-yl)-7-oxo-4,5,6,7-tetrahydro-1H-pyrazolo[3,4-c]pyridine-3-carboxamide]
3000 to 10000 nM	> 40 µM	CN1C(=O)CCc2ccc(N3CCc4c(C(=O)NCC5CC5)nn(-c5cccc(Cl)c5)c4C3=O)cc21 [Example 1207, 1-(3-chlorophenyl)-N-(cyclopropylmethyl)-6-(1-methyl-2-oxo-1,2,3,4-tetrahydroquinolin-7-yl)-7-oxo-4,5,6,7-tetrahydro-1H-pyrazolo[3,4-c]pyridine-3-carboxamide]
1000 to 3000 nM	10 to 40 µM	Cc1cc(CNC(=O)c2nn(-c3cccc(Cl)c3)c3c2CCN(c2ccc4c(c2)N(C)C(=O)CC4)C3=O)nn1C [Example 1208, 1-(3-chlorophenyl)-N-((1,5-dimethyl-1H-pyrazol-3-yl)methyl)-6-(1-methyl-2-oxo-1,2,3,4-tetrahydroquinolin-7-yl)-7-oxo-4,5,6,7-tetrahydro-1H-pyrazolo[3,4-c]pyridine-3-carboxamide]
